Results published in patent publication US9326513B2, “Fungicidal compositions” (Syngenta Participations AG, priority 2011, dated 2016).

Legend:
Type in all cases: in vivo
Conditions in all cases: foliar, compared to untreated control leaf disks, read-out: disease control
[1] = system: Blumeria graminis f. sp. tritici (Erysiphe graminis f. sp. tritici); assay: Blumeria graminis f. sp. tritici / wheat / leaf disc preventative (powdery mildew on wheat)
Experimental: Blumeria graminis f. sp. tritici (Erysiphe graminis f. sp. tritici)/Wheat/Leaf Disc Preventative (Powdery Mildew on Wheat)
Wheat leaf segments cv. Kanzler were placed on agar in a multiwell plate (24-well format) and sprayed with the formulated test compound diluted in water. The leaf disks were inoculated by shaking powdery mildew infected plants above the test plates 1 day after application. The inoculated leaf disks were incubated at 20° C. and 60% rh under a light regime of 24 h darkness followed by 12 h light/12 h darkness in a climate chamber and the activity of a compound was assessed as percent disease control compared to untreated when an appropriate level of disease damage appears on untreated check leaf segments (6-8 days after application).
The following compounds gave at 200 ppm give at least 50% disease control in this test when compared to untreated control leaf disks under the same conditions, which show extensive disease development: […]

[2] = system: Puccinia recondita f. sp. tritici; assay: Puccinia recondita f. sp. tritici / wheat / leaf disc preventative (brown rust)
Text: Puccinia recondita f. sp. tritici/Wheat/Leaf Disc Preventative (Brown Rust) Wheat leaf segments cv. Kanzler were placed on agar in multiwell plates (24-well format) and sprayed with the formulated test compound diluted in water. The leaf disks were inoculated with a spore suspension of the fungus 1 day after application.

[3] = system: Puccinia recondita f. sp. tritici; assay: Puccinia recondita f. sp. tritici / wheat / leaf disc curative (brown rust)
Experimental: Puccinia recondita f. sp. tritici/Wheat/Leaf Disc Curative (Brown Rust) Wheat leaf segments cv. Kanzler are placed on agar in multiwell plates (24-well format). The leaf segments are inoculated with a spore suspension of the fungus. Plates were stored in darkness at 19° C. and 75% rh. The formulated test compound diluted in water was applied 1 day after inoculation.

Row | SMILES | pest or weed control at 200 ppm [1] | pest or weed control at 200 ppm [2] | pest or weed control at 200 ppm [3]
1 | CCN(C)/C=N/c1ccc(OCc2cc(C)cc(C)c2)nc1C [Q.296] | ≥ 50% | ≥ 50% | ≥ 50%
2 | CCN(C)/C=N/c1cc(Br)c(OC2CCC(=O)CC2)nc1C [Q.031] | ≥ 50% | ≥ 50% | ≥ 50%
3 | C/C=C/C(C)Oc1nc(C)c(/N=C/N(C)CC)cc1Br (stereo not shown) [Q.331] | ≥ 50% | ≥ 50% | ≥ 50%
4 | CCN(C)/C=N/c1cc(Br)c(OC(C)(C)c2cc(-c3ccccc3)no2)nc1C [Q.077] | ≥ 50% | ≥ 50% | ≥ 50%
5 | CCN(C)/C=N/c1cc(Br)c(OC(C)c2ccccc2C(C)C)nc1C (stereo not shown) [Q.307] | ≥ 50% | ≥ 50% | ≥ 50%
6 | CCN(C)/C=N/c1cc(Br)c(OC(C)c2ccccc2C#N)nc1C (stereo not shown) [Q.305] | ≥ 50% | ≥ 50% | ≥ 50%
7 | CCN(C)/C=N/c1cc(Br)c(OC2C=CCCC2)nc1C (stereo not shown) [Q.172] | ≥ 50% | ≥ 50% | ≥ 50%
8 | CCN(C)/C=N/c1cc(Br)c(OC2CCC(O)CC2)nc1C (stereo not shown) [Q.213] | ≥ 50% | ≥ 50% | ≥ 50%
9 | Cc1cc(C)cc(C(C)Oc2ccc(/N=C/N(C)C(C)C)c(C)n2)c1 (stereo not shown) [Q.360] | ≥ 50% | ≥ 50% | ≥ 50%
10 | CCN(C)/C=N/c1cc(Br)c(OCc2ccccc2C#Cc2ccccc2)nc1C [Q.310] | ≥ 50% | ≥ 50% | ≥ 50%
11 | C=CCC(C)Oc1nc(C)c(/N=C/N(C)CC)cc1Br (stereo not shown) [Q.145] | ≥ 50% | ≥ 50% | ≥ 50%
12 | CCCCCCCCCCOc1nc(C)c(/N=C/N(C)CC)cc1C [Q.058] | ≥ 50% | ≥ 50% | ≥ 50%
13 | CCN(C)/C=N/c1cc(Br)c(OC2Cc3cc(C#N)c(OC)cc3C2)nc1C (stereo not shown) [Q.369] | ≥ 50% | ≥ 50% | ≥ 50%
14 | C=CCC(CC=C)Oc1nc(C)c(/N=C/N(C)CC)cc1Br [Q.140] | ≥ 50% | ≥ 50% | ≥ 50%
15 | CCN(C)/C=N/c1cc(Br)c(OCC(F)F)nc1C [Q.383] | ≥ 50% | ≥ 50% | ≥ 50%
16 | CCN(C)/C=N/c1cc(Br)c(OCc2ccccc2C)nc1C1CC1 [Q.401] | ≥ 50% | ≥ 50% | ≥ 50%
17 | C/C=C/c1cc(/N=C/N(C)CC)c(C)nc1OCc1ccccc1C [Q.385] | ≥ 50% | ≥ 50% | ≥ 50%
18 | CCOC(=O)COc1nc(C)c(/N=C/N(C)CC)cc1C [Q.065] | ≥ 50% | ≥ 50% | ≥ 50%
19 | CCN(C)/C=N/c1cc(Br)c(OCCCC2CC2)nc1C [Q.356] | ≥ 50% | ≥ 50% | ≥ 50%
20 | CCN(C)/C=N/c1ccc(O[C@H]2CC[C@@H](CC)CC2)nc1C [Q.381] | ≥ 50% | ≥ 50% | ≥ 50%
21 | CCN(C)/C=N/c1cc(Br)c(OC(C)c2ccc(C)cc2)nc1C (stereo not shown) [Q.112] | ≥ 50% | ≥ 50% | ≥ 50%
22 | CCN(/C=N/c1cc(Br)c(OC(C)c2cc(F)cc(F)c2)nc1C)CC (stereo not shown) [Q.187] | ≥ 50% | ≥ 50% | 
23 | CCN(C)/C=N/c1cc(Br)c(OC(C)c2cccc(C#Cc3ccccc3)c2)nc1C (stereo not shown) [Q.312] | ≥ 50% | ≥ 50% | 
24 | CCN(C)/C=N/c1cc(Br)c(OC(C)c2ccccc2C)nc1C (stereo not shown) [Q.321] | ≥ 50% | ≥ 50% | ≥ 50%
25 | Cc1nc(OC2CCCCC2C)ccc1/N=C/N(C)C(C)C (stereo not shown) [Q.342] | ≥ 50% | ≥ 50% | ≥ 50%
